Assay [1] concerns ventricular tachyarrhythmias following LAD coronary artery ligation. Kind of assay: Model 1: two-stage LAD coronary artery ligation, Holter EKG monitoring 2-24 hr (ventricular triplets, sustained VT/VF, death). It counts as in vivo, dog. The following applies: for fastest ventricular triplet rate observed per hour after LAD ligation (FIG. 18, FIG. 32): 4 to 24 hr after LAD ligation; for mortality (dogs died of group): 24 hr after LAD ligation, etanercept 2 mg/kg at -24 and -1 hr, bortezomib 0.0875 mg/kg at -1 and +6 hr, anakinra 10 mg/kg at -1 and +12 hr, control 4 of 10, preliminary. As for the experimental part: The two-stage ligation procedure results in a very low incidence of ventricular fibrillation (<5-10%) during the initial 6 hours following coronary artery occlusion (Harris et al., 1951). Almost all ventricular fibrillation occurs during the initial 30 minutes with a high proportion of successful defibrillation. Ambulatory EKG monitoring is performed over the 2-24 hr period following coronary artery ligation. During the 6-24 hr period, a 25-40% incidence of rapid monomorphic ventricular tachycardia (385±15/min) leading to ventricular fibrillation is observed at 13.3±0.8 hours post-LAD ligation (FIG. 1), with a mean duration of monomorphic ventricular tachycardia preceding ventricular fibrillation of 66±7 sec. When provocative ventricular pacing is performed at 24 hours, however, the reentrant substrate supporting sustained ventricular tachycardia is present in more than 80% of the surviving dogs with no difference in rate between spontaneous and pacing-induced sustained monomorphic ventricular tachycardias (FIG. 3).
In the 24-hr Infarct (Model 1) Studies, each control and etanercept pretreated animal was monitored for ventricular arrhythmias using a Holter 2-lead recording for the duration of time following LAD ligation. […] In the saline control group, 4 animals died at 11-24 hours post ligation. […]
Model 1: Electrophysiologic correlates of myocardial infarction over a 24-hr period. Eighteen 15-22 kg male mongrel dogs were anesthetized with IV sodium pentobarbital (30 mg/kg). A cuffed endotracheal tube was inserted and the animals were ventilated with room air using a volume-cycled respirator. […] The dogs were extubated and allowed to awaken in a temperature-controlled, humidified small animal post-operative recovery unit. They were given nalbuphine 0.2 mg/kg for post-operative analgesia. During the 2-24 hr period following LAD ligation, Holter monitoring was performed and the two-lead EKG was recorded on magnetic tape. Dogs were re-anesthetized with sodium pentobarbital at 24-hr. The thoracotomy was reopened and the heart was removed and perfused with ice-cold Tyrode's buffer via the left main coronary artery. The outer 0.5-1.5 mm EBZ tissue overlying the infarct was shaved and a longitudinal sample of tissue from the LAD region was stained with triphenyltetrazolium chloride (0.1%) to determine viability of the EBZ. Triphenyltetrazolium (TTZ) forms a brick-red precipitate in the presence of active intracellular dehydrogenases, delineating vital tissue. Non-viable tissues are not stained and remain a pale color. […] Tissue samples from the RS, the EBZ and the infarct tissue were dissected rapidly on an ice-cold surface, placed in freezer vials, and frozen in liquid nitrogen. These samples were then stored at −70° C. for later assay.
EKG Analysis: Full disclosure EKG records were obtained at 10 mm/sec for the entire 2-24 hour post-occlusion period. All measurements and calculations were made by direct visual observation and manual counting.
Anti-TNFα Treatment: A dosage of 2 mg/kg hTNFR:Fc (supplied as etanercept, Amgen, Inc, Thousand Oaks, Calif.) or saline were injected IV into a forepaw vein at 24-hr and again 1-hr prior to LAD ligation. […] This dosage was used after consultation with the pharmaceutical corporate pharmacology section and based on unpublished internal data that this dosage would provide maximal sequestration of tissue and circulating TNFα.

For assay [2], the system named is β-adrenergic receptor kinase (βARK). Kind of assay: βARK immunoblot of EBZ tissue 24 hr after LAD ligation (Model 1). The following applies: bortezomib pretreated dog versus saline control, 24-hour infarct. It counts as in vivo, dog. The procedure: βARK immunoblots were used to estimate βARK expression (Yu et al., 2000).
Western Blot Analysis: Assessment of βARK content was conducted using standard SDS-PAGE and immunoblot techniques. Samples containing 100 μg of protein from myocardial extracts were electrophoresed using 10% SDS-PAGE and transferred to nitrocellulose membranes. The membrane was incubated with monoclonal anti-βARK (Upstate Biotechnology, Inc, Lake Placid, N.Y.), followed by exposure to peroxidase-linked anti-mouse IgG. Antibody binding was detected by a chemiluminescent method (ECL, Amersham Biosciences Corp, Piscataway, N.J.). Quantification of immunoreactive proteins was performed by densitometric scanning and with Image QuaNT software (Molecular Dynamics).
β-ARK, Proteasome and Ubiquitin Expression Assays: β-ARK, ubiquitinated β-ARK and proteasome in EBZ and RS tissues was determined by Western blot analysis. Samples were adjusted after protein concentration was assayed (BCA, Pierce Chemicals) to provide identical loads. 100 μg protein was combined with equal volume of SDS sample buffer, and electrophoresed on a 10% polyacrylamide gel. The blocked membranes were incubated with mouse anti β-ARK monoclonal antibody (Santa Cruz Biotechnology, Santa Cruz, Calif.) for 1-h at room temperature followed by anti-mouse IgG coupled to horseradish peroxidase and developed using an ECL western blotting kit (Amersham). The bands were scanned, stripped and reprobed with mouse anti-ubiquitin antibody (Santa Cruz Biotechnology, Santa Cruz, Calif.). The membrane was rescanned, stripped a second time and reprobed with rabbit anti-proteasome 20S C2 subunit polyclonal antibody (A.G. Scientific, Inc. CA). A separate control gel was included that was similarly treated, but reprobed with the identical Ab and band quality and density compared to the previous data obtained before stripping. Quantitation of immunoreactive bands was performed by densitometric scanning using ImageQuant software (Molecular Dynamics).

In assay [3] the test system is proteasome. Nature of the assay: Proteasome chymotrypsin-like peptidase activity in packed whole blood cells after injection. The following applies: 0.175 mg/kg, 1 hr before and 8 hr after LAD ligation; 1-24 hr after first injection; n=4. It counts as in vivo, dog. The procedure: (§1) Whole blood was measured at each time interval (FIGS. 29A and 29B), and ischemic myocardial tissue proteasome activity was measured at the final time interval (FIG. 30).
(§2) Proteasome activity: Activity was determined by proteasome chymotrypsin-like peptidase activity assay. Both cardiac (all groups) and whole blood cell (groups 4 and 5) proteasome activity was assayed. 30 mg frozen cardiac tissue was powdered in liquid nitrogen and sonicated in 0.5 ml buffer. Samples were then centrifuged for 30 min at 10,000 g at 4° C. and the supernatant was used for the assay. For preparing whole blood cell, heparinized blood was washed one time with saline and twice with cold PBS. The cells were lysed with EDTA (5 mM, pH 8.0) for 1 hr and centrifuged at 6600 g for 10 min at 4° C. and the supernatant was used for the assay. 0.4 mM Suc-Ala-Ala-Phe-MAC (Bachem California) was used as substrate. […] The time course for fluorescence was measured using a VICTOR3 Multilabel Counter (Perkin Elmer, Inc) at time 0 and every 5 min for 1 h to estimate the MAC liberated (excitation 380 nm, emission 460 nm). Slopes and intercepts were calculated using Microsoft Excel. Final results were expressed as fluorescence units/μg protein/min.

For assay [4], the system named is proteasome. Kind of assay: Proteasome chymotrypsin-like peptidase activity in myocardial tissue (RS, EBZ, INF) after injection. The following applies: 0.175 mg/kg, INF tissue 23-hr after LAD ligation, n=4, control tissues averaged 45 FU/100 μg protein/min. It counts as in vivo, dog. The procedure: as §1, §2
For assay [5], the target named is β-adrenergic receptors in epicardium. Kind of assay: Action potential shortening with isoproterenol in epicardium. Details: species or system dog. The text has this:
This information is consistent with increased β-ARK-1 activity and decreased β-adrenergic receptor sensitivity in ventricular myocardium with chronic catecholamine administration or the converse, a decrease in β-ARK-1 with prolonged β-adrenergic receptor blockade (Pye et al., 2003).

For assay [6], the target named is β-adrenergic receptor / adenylate cyclase. The following applies: read-out: mean EC50, isoproterenol-AC activity, SEM, n=4.
Description: FIG. 10 illustrates an isoproterenol-AC activity dose-response curve in EBZ and RS tissue obtained 24 hours after LAD ligation. Data are shown for 1 of 4 experiments. Each point is mean of duplicate samples.
The test system of assay [7] is ventricular tachyarrhythmias following LAD coronary artery ligation. Particulars: nadolol-treated dogs (Patterson et al., 1986), cited from earlier work.

“Also recorded” adds a separate entry of the source. Where two headings read alike, the source gives them in different places.

In the case of `CC(C)C[C@H](NC(=O)[C@H](Cc1ccccc1)NC(=O)c1cnccn1)B(O)O` [bortezomib], in assay [1], the “fastest ventricular triplet rate observed per hour after LAD ligation (FIG. 18, FIG. 32)” value is “marked decrease” and the “mortality (dogs died of group)” value was 0 of 6. In addition, in assay [1] (etanercept 2 mg/kg, bortezomib 0.0875 mg/kg), the “very rapid (≧360 bpm) ventricular triplets versus control (FIG. 31B)” value was “significant descrease; also recorded: no triplets in this range”. Besides, in assay [2], the “protection against loss of βARK (GRK2) protein in EBZ, Western immunoblot (FIG. 34)” value was “marked protection against loss of βARK protein; also recorded: significant protection against loss of GRK2 expression”. The “packed whole blood proteasome activity after injection” value in assay [3] is listed as “significant decrease in proteasome activity”. Also, in assay [4], the “myocardial tissue proteasome activity 24-hr after first injection” value is “decreased from control tissues”.
In the case of `CC(C)NCC(O)c1ccc(O)c(O)c1` (centres unmarked) [isoproterenol], the EC50 (as a rule, the concentration needed to bring the measured effect to its halfway point) in assay [5] (control normal tissue) is 0.00047 µM; in assay [5] (remote site normal tissue, 24 hours post LAD ligation), 0.0143 µM; in assay [6] (EBZ tissue 24 hours after LAD ligation), 0.018 ± 0.0089 µM; in assay [6] (RS tissue 24 hours after LAD ligation), 0.073 ± 0.022 µM.
For the compound `CC(C)(C)NCC(O)COc1cccc2c1CC(O)C(O)C2` (centres unmarked) [nadolol], the “incidence of sudden death, 2-24 hr after coronary artery ligation” value in assay [7] (FIG. 6) is listed as “reduce the incidence of sudden death”. Moreover, the “rate and number of rapid ventricular triplets, 2-24 hr after coronary artery ligation” value in assay [7] (FIGS. 7 and 8) was “reduce both the rate and number of rapid ventricular triplets”. In assay [7], the “incidence of pacing-induced sustained monomorphic reentrant tachycardia in surviving animals at 24 hours” value was “without reducing the incidence” and the infarct mass entry was “without altering infarct mass”.
As for “anakinra: interleukin-1 antagonist (IL-1 inhibitor)”, in assay [1], the “fastest ventricular triplet rate observed per hour after LAD ligation (FIG. 18, FIG. 32)” value is “no significant difference between etancercept and anakinra”; the “mortality (dogs died of group)” value is 1 of 7. In addition, the “rapid (>300 bpm) ventricular triplets per hour versus control (FIG. 31A)” value in assay [1] (etanercept 2 mg/kg, bortezomib 0.0875 mg/kg, anakinra 10 mg/kg) was “relatively low until 8 hours after LAD and then rose rapidly”.

The values above are taken from patent US7348305B2, “Inhibitor of cardiac tachyarrhythmias” (Department of Veterans Affairs, Rehabilitation, priority 2003, dated 2008).
